Test results as given in patent US10000791B2, “Measurement method for human pancreatic lipase activity” (ASAHI KASEI PHARMA CORPORATION, priority 2013, dated 2018).

Columns and labels:
non-pancreatic lipase = experiment: quantitative evaluation of influence of non-pancreatic lipase (measured value versus theoretical or reference value in heparin-administered samples); format: biochemical, human
Excerpt: Next, the influence of the non-pancreatic lipase activity was obtained as follows on the assumption that the Liquitech reagent is not influenced by the non-pancreatic lipase. First, with respect to measured values of the enzyme activity obtained in samples other than the heparin-administered samples, a regression equation (an independent variable X: enzyme activity attained by Liquitech, a dependent variable Y: enzyme activity attained by the comparative example or the present example) was obtained. Next, with respect to each heparin-administered sample, the variable Y was calculated as a theoretical value by substituting the measured value of the enzyme activity obtained by the Liquitech for the variable X of the regression equation. Thereafter, with respect to each heparin-administered sample, the actually measured value of the enzyme activity obtained by the comparative example or the present example was divided by the theoretical value of the variable Y to calculate a relative percentage (%). It is noted that the acceptable range of the influence was provisionally set as within ±20% in reference to the package insert of “Liquitech Lipase Color II” describing that the accuracy is within ±15% of known activity.
In the present example, NaGDCA was selected as the conjugated bile acid and was combined with a non-conjugated bile acid, NaDCA, (mixed in equal amounts) to examine the behavior of a heparin-administered sample with the pH of a reaction solution changed to 7.1, 7.4 and 7.6. As the buffer solution, the BES buffer was used. As samples, (four) control samples (controls each containing a pancreatic lipase), (ten) normal samples and (nine) heparin-administered samples were used. As a comparative example, NaDCA (in a concentration of 30 mmol/L in the R-1) and NaTDCA (in a concentration of 10 mmol/L in the R-1) were used as the bile acid, and the reaction solution was adjusted to pH 7.95 (the Bicine buffer). Besides, “Liquitech Lipase Color II” manufactured by Roche Diagnostics was used for verifying the effect of the present example. “Liquitech Lipase Color II” was used in accordance with the package insert, and a special calibrator was used for calculating the enzyme activity. Thereafter, in the same manner as in Example 7, with respect to each heparin-administered sample, the actually measured value of the enzyme activity obtained by the comparative example or the present example was divided by the theoretical value to calculate a relative percentage (%). The influence of the non-pancreatic lipase activity and the acceptable range of the influence were the same as those in Example 7.
As a comparative example, NaDCA and NaTDCA (respectively in concentrations of 30 mmol/L and 10 mmol/L in the R-1) were used as the bile acids, and the reaction solution was adjusted to pH 7.95 by using the Bicine buffer to measure a heparin-administered sample. […] The bile acids were used in a total concentration in the R-1 of 40 mmol/L (each in 20 mmol/L in using two of them, and each in 13.3 mmol/L in using three of them). Besides, “Liquitech Lipase Color II” manufactured by Roche Diagnostics was used for verifying the effect of the present example. “Liquitech Lipase Color II” was used in accordance with the package insert, and a special calibrator was used for calculating the enzyme activity. In each of the comparative example and the present example, the lipase activity was calculated by using a molecular extinction coefficient of 6300 L/mol·cm of the reduced NADP. Thereafter, in the same manner as in Example 7, with respect to each heparin-administered sample, the actually measured value of the enzyme activity obtained by the comparative example or the present example was divided by the theoretical value to calculate a relative percentage (%). The influence of the non-pancreatic lipase activity and the acceptable range of the influence were calculated in the same manner as in Example 7.

human pancreatic lipase = experiment: pH dependence of human pancreatic lipase activity in the presence of bile acids (diglyceride substrate, UV method); format: biochemical; conditions: pH 7.2

## C[C@H](CCC(=O)NCC(=O)[O-])[C@H]1CC[C@H]2[C@@H]3[C@H](O)C[C@@H]4C[C@H](O)CC[C@]4(C)[C@H]3CC[C@]12C.[Na+] [NaGCDCA, sodium glycochenodeoxycholate]
non-pancreatic lipase; sample Heparin 31, pH 7.0
  Measured value/theoretical value (Table 5): 98.4%
non-pancreatic lipase; sample Heparin 31, pH 7.95
  Measured value/theoretical value (Table 5): 311.8%
non-pancreatic lipase; sample Heparin 32, pH 7.0
  Measured value/theoretical value (Table 5): 98.5%
non-pancreatic lipase; sample Heparin 32, pH 7.95
  Measured value/theoretical value (Table 5): 492.8%
non-pancreatic lipase; sample PRECINORM, pH 7.0
  Measured value/theoretical value (Table 5): 99.3%
non-pancreatic lipase; sample PRECINORM, pH 7.95
  Measured value/theoretical value (Table 5): 107.6%
non-pancreatic lipase; sample PRECIPATH, pH 7.0
  Measured value/theoretical value (Table 5): 100.9%
non-pancreatic lipase; sample PRECIPATH, pH 7.95
  Measured value/theoretical value (Table 5): 111.6%
non-pancreatic lipase; sample Pool 1, pH 7.0
  Measured value/theoretical value (Table 5): 101.8%
non-pancreatic lipase; sample Pool 1, pH 7.95
  Measured value/theoretical value (Table 5): 99.4%
non-pancreatic lipase; sample Pool 2, pH 7.0
  Measured value/theoretical value (Table 5): 89.8%
non-pancreatic lipase; sample Pool 2, pH 7.95
  Measured value/theoretical value (Table 5): 126.2%
non-pancreatic lipase; sample Seraclear LP, pH 7.0
  Measured value/theoretical value (Table 5): 87.0%
non-pancreatic lipase; sample Seraclear LP, pH 7.95
  Measured value/theoretical value (Table 5): 60.4%

## C[C@H](CCC(=O)NCCS(=O)(=O)[O-])[C@H]1CC[C@H]2[C@@H]3CC[C@@H]4C[C@H](O)CC[C@]4(C)[C@H]3C[C@H](O)[C@]12C.[Na+] [NaTDCA, sodium taurodeoxycholate]
non-pancreatic lipase; Average of Heparin 21-25, pH 6.2
  actually measured value/theoretical value (Table 4): 104.1%
non-pancreatic lipase; Average of Heparin 21-25, pH 6.4
  actually measured value/theoretical value (Table 4): 102.7%
non-pancreatic lipase; Average of Heparin 21-25, pH 6.6
  actually measured value/theoretical value (Table 4): 97.8%
non-pancreatic lipase; Average of Heparin 21-25, pH 6.9
  actually measured value/theoretical value (Table 4): 94.9%
non-pancreatic lipase; Average of Heparin 21-25, pH 7.2
  actually measured value/theoretical value (Table 4): 100.9%
non-pancreatic lipase; Average of Heparin 21-25, pH 7.4
  actually measured value/theoretical value (Table 4): 119.2%
non-pancreatic lipase; Average of Heparin 21-25, pH 7.6
  actually measured value/theoretical value (Table 4): 212.1%
non-pancreatic lipase; heparin-administered samples, pH 7.4 or lower
  actually measured values relative to theoretical values, average: smaller than 120.0%
non-pancreatic lipase; sample Heparin 21, pH 6.2
  actually measured value/theoretical value (Table 4): 118.4%
non-pancreatic lipase; sample Heparin 21, pH 6.4
  actually measured value/theoretical value (Table 4): 110.6%
non-pancreatic lipase; sample Heparin 21, pH 6.6
  actually measured value/theoretical value (Table 4): 109.4%
non-pancreatic lipase; sample Heparin 21, pH 6.9
  actually measured value/theoretical value (Table 4): 99.9%
non-pancreatic lipase; sample Heparin 21, pH 7.2
  actually measured value/theoretical value (Table 4): 99.1%
non-pancreatic lipase; sample Heparin 21, pH 7.4
  actually measured value/theoretical value (Table 4): 118.3%
non-pancreatic lipase; sample Heparin 21, pH 7.6
  actually measured value/theoretical value (Table 4): 167.2%
non-pancreatic lipase; sample Heparin 22, pH 6.2
  actually measured value/theoretical value (Table 4): 100.6%
non-pancreatic lipase; sample Heparin 22, pH 6.4
  actually measured value/theoretical value (Table 4): 100.8%
non-pancreatic lipase; sample Heparin 22, pH 6.6
  actually measured value/theoretical value (Table 4): 93.6%
non-pancreatic lipase; sample Heparin 22, pH 6.9
  actually measured value/theoretical value (Table 4): 86.0%
non-pancreatic lipase; sample Heparin 22, pH 7.2
  actually measured value/theoretical value (Table 4): 98.5%
non-pancreatic lipase; sample Heparin 22, pH 7.4
  actually measured value/theoretical value (Table 4): 107.8%
non-pancreatic lipase; sample Heparin 22, pH 7.6
  actually measured value/theoretical value (Table 4): 162.0%
non-pancreatic lipase; sample Heparin 23, pH 6.2
  actually measured value/theoretical value (Table 4): 112.9%
non-pancreatic lipase; sample Heparin 23, pH 6.4
  actually measured value/theoretical value (Table 4): 115.8%
non-pancreatic lipase; sample Heparin 23, pH 6.6
  actually measured value/theoretical value (Table 4): 111.4%
non-pancreatic lipase; sample Heparin 23, pH 6.9
  actually measured value/theoretical value (Table 4): 114.9%
non-pancreatic lipase; sample Heparin 23, pH 7.2
  actually measured value/theoretical value (Table 4): 110.5%
non-pancreatic lipase; sample Heparin 23, pH 7.4
  actually measured value/theoretical value (Table 4): 129.2%
non-pancreatic lipase; sample Heparin 23, pH 7.6
  actually measured value/theoretical value (Table 4): 281.9%
non-pancreatic lipase; sample Heparin 24, pH 6.2
  actually measured value/theoretical value (Table 4): 95.4%
non-pancreatic lipase; sample Heparin 24, pH 6.4
  actually measured value/theoretical value (Table 4): 91.7%
non-pancreatic lipase; sample Heparin 24, pH 6.6
  actually measured value/theoretical value (Table 4): 83.0%
non-pancreatic lipase; sample Heparin 24, pH 6.9
  actually measured value/theoretical value (Table 4): 84.4%
non-pancreatic lipase; sample Heparin 24, pH 7.2
  actually measured value/theoretical value (Table 4): 96.0%
non-pancreatic lipase; sample Heparin 24, pH 7.4
  actually measured value/theoretical value (Table 4): 113.2%
non-pancreatic lipase; sample Heparin 24, pH 7.6
  actually measured value/theoretical value (Table 4): 215.2%
non-pancreatic lipase; sample Heparin 25, pH 6.2
  actually measured value/theoretical value (Table 4): 93.1%
non-pancreatic lipase; sample Heparin 25, pH 6.4
  actually measured value/theoretical value (Table 4): 94.7%
non-pancreatic lipase; sample Heparin 25, pH 6.6
  actually measured value/theoretical value (Table 4): 91.7%
non-pancreatic lipase; sample Heparin 25, pH 6.9
  actually measured value/theoretical value (Table 4): 89.5%
non-pancreatic lipase; sample Heparin 25, pH 7.2
  actually measured value/theoretical value (Table 4): 100.2%
non-pancreatic lipase; sample Heparin 25, pH 7.4
  actually measured value/theoretical value (Table 4): 127.4%
non-pancreatic lipase; sample Heparin 25, pH 7.6
  actually measured value/theoretical value (Table 4): 234.4%
Human pancreatic lipase; substrate concentration 1.40 mmol/L
  proportion of the bile acid to the substrate for attaining the maximum lipase activity: about 17
Human pancreatic lipase; substrate concentration 1.63 mmol/L
  proportion of the bile acid to the substrate for attaining the maximum lipase activity: about 15
